In patent US10590178B2 (priority 2014, dated 2020):

Key:
Met6-8MAP = assay: Serum antibody ELISA after immunization, plates coated with Met6-8MAP; format: in vivo; details: after first booster; serum diluted 1:200; alum adjuvant; OD 492 nm
Protocol: Sera antibody titers were analyzed by ELISA. For DC-based immunization, the control groups were mice given DCs alone, or given DPBS alone, for all three injections. […] Fbb-8MAP or Met6-8MAP was dissolved at 5 μg/ml in PBS (pH 7.4), and used to coat 96-well ELISA plates with duplicate, serial, 2-fold dilutions of samples of each immune serum and control serum. Each well was treated with secondary antibody (goat anti-mouse polyvalent Ig-HRP, Sigma) and substrate (o-phenylenediamine and H2O2). Optical density was measured at 492 nm.
Serum samples were collected 14 days after immunization, diluted 1:200, and tested by ELISA on plates coated with the applicable peptide-8MAP conjugate. […] However, the immune responses to the MAP conjugates were substantially weaker than those induced by peptide-pulsed DC immunization.

C. albicans = assay: Chimeric double peptide-pulsed DC vaccination versus single peptides and mixture, lethal Candida challenge in mice (survival, kidney CFUs); details: for kidney CFUs: compared to non-immune mice / other vaccines
Protocol: Different groups of dendritic cells (DCs) were pulsed in vitro with Fba peptide, Met6 peptide, Fba-Met6 chimeric double peptide, or a mixture of the two peptides Fba and Met6. Briefly, DCs in culture were pulsed with the peptide antigen (1 μM) on day 6. On day 7, PGE2 (10^−7 M) was added along with LPS (2 μg/ml, Sigma) for 24 h. On day 9, antigen-pulsed DCs were washed extensively and 5×10^5 cells in 200 μl DPBS were injected into mice i.p. with complete Freund's adjuvant as the priming dose. The mice were boosted i.p. at day 14 with fresh antigen-pulsed DCs and adjuvant. The mice were again boosted i.p. at day 28 with fresh antigen-pulsed DCs, but the final boost used no adjuvant.
Two weeks after the second boost, immunized and control mice were both infected i.v. with a lethal dose of live C. albicans yeast cells (5×10^5 in 0.1 ml of DPBS), prepared as described above. Passively immunized mice (see below) also received the same challenge dose. Protection was evaluated by monitoring animal survival for 50-60 days. The mice were monitored for the development of a moribund state: defined as being listless, disinterested in food or water, and nonreactive to finger probing. Once a mouse was deemed moribund, it was sacrificed and its kidneys were homogenized in DPBS and plated onto a nutrient agar to determine the number of colony forming units of yeast (CFUs).

## PRIGGQRELKKITE (Met6 peptide) [14-mer peptide from C. albicans cell wall protein Met6]
Met6-8MAP
  antibody response compared to negative control mice (DPBS or adjuvant only): 4-5 fold

## YGKDVKDLFDYAQEKKPRIGGQRELKKITE [Fba-KK-Met6]
C. albicans; listed as Fba-Met6 chimeric double peptide vaccine
  kidney CFUs: only one mouse in that group exhibited any detectable kidney CFUs
C. albicans; listed as Fba-Met6 conjugate
  kidney CFUs: much lower CFUs in kidneys
C. albicans; up to 60 days (end of experiment)
  survival rate / protection: 100%
